Assay results from publication PMC10868801, “Characterization of covalent inhibitors that disrupt the interaction between the tandem SH2 domains of SYK and FCER1G phospho-ITAM” (PLOS ONE, 2024).
≈ marks a conversion by molar mass, not a printed value. Like-named read-outs stand apart in the source and are kept apart here. Non-standard residues stand in square brackets, D forms with d. Residues, ends and D or L forms follow the SMILES beside them. Primed or numbered codes have the meaning given here. No end group written: not given here. pY = N[C@@H](Cc1ccc(OP(=O)(O)O)cc1)C(=O)O; FITC′ = not defined here

Tests used:
[1] = target: 6xHis-SYK-tSH2 (tandem SH2 domains of human SYK, residues M6-N269, SYKA-c020 tagged) (human) (UniProt P43405); assay: AlphaScreen or HTRF; TR-FRET competition: 6xHis-SYK-tSH2 4 nM with Tb-conjugated anti-6xHis antibody, FITC-conjugated FCER1G peptide 8 nM, unlabeled peptide titrated; 25 mM HEPES pH 7.5, 200 mM NaCl, 0.1% BSA, 0.05% Tween-20; 2 h at room temperature
[2] = target: T1, SYK-tSH2 / FCER1G p-ITAM interaction (Homo sapiens, UniProt P43405); assay: TR-FRET assay of 6xHis-SYK-tSH2 with FITC-labeled FCER1G p-ITAM peptide; type: biochemical
T1 construct: the tSH2 domain of SYK (residues M6-N269) fused to an N-terminal 6×His tag; made in house; host or cells: E. coli BL21(DE3)-R3-pRARE
From the text: To facilitate identification of inhibitors of the SYK-FCER1G interaction, we developed a TR-FRET assay using recombinant protein comprising the tSH2 domain of SYK (residues M6-N269) fused to an N-terminal 6×His tag (S1A Fig). The TR-FRET assay is based on the interaction of a FITC-labeled FCER1G p-ITAM peptide to the 6×His-SYK-tSH2 protein in complex with a terbium-conjugated anti-His antibody (Tb-Ab) (Fig 3B). Once excited, a TR-FRET signal is generated from the Tb donor to the FITC acceptor fluorophore. […] To enable uHTS for large scale screening of small molecule libraries, we miniaturized the TR-FRET assay from 96-well plate format to a 1536-well.
TR-FRET experiments were performed in 20 μL reactions, using 384-well shallow-well microplates (PerkinElmer). Final reaction components contained 6xHis-SYK-tSH2 (SYKA-c020 tagged) (4 nM), FITC-conjugated FCER1G peptide (8 nM), Tb-conjugated anti-6xHis antibody (53 ng/ml; Cisbio) in assay buffer containing 25 mM HEPES (pH 7.5), 200 mM NaCl, 0.1% BSA and 0.05% Tween-20. After a 2h incubation (at room temperature), TR-FRET signals were measured on a BMG Labtech PHERAstar FSX reader using a Lanthascreen Optics Module. A 200 μs delay was used after excitation with a flash lamp before measurement of fluorescence emission at […]. TR-FRET ratios of fluorescent intensity at 520 nm to 490 nm were calculated. The half maximal inhibitory concentration (IC50) was determined by fitting a four parametric logistic curve to the data.

[3] = target: T2, full length SYK and FCER1G (Homo sapiens, UniProt P43405); assay: GST pull-down (GST-PD) of GST-SYK and FCER1G-Flag from HEK293T cell lysates; type: biochemical; conditions: for PPI disruption in GST-PD: dose-response format; for Inhibition of SYK-GST / FCER1G-Flag interaction in pulldown: single concentration (100 μM)
T2 construct: full length GST-SYK and FCER1G-Flag were co-expressed in HEK293 cells prior to lysis; expressed in transfected cells; host or cells: HEK293T (CRL-3216, ATCC)
Method: Pull-down assays were used as an orthogonal assay to determine if the compounds could disrupt the PPI between full length SYK and FCER1G proteins from cell lysates. To optimize GST pulldown assays, full length GST-SYK and FCER1G-Flag were co-expressed in HEK293 cells prior to lysis and the protein expression and cell lysate concentrations tested (Fig 4A). All 40 compounds that progressed from uHTS were tested via GST-PD at a single concentration (100 μM) to determine if they could inhibit the PPI between the full-length proteins, with the p-ITAM FCER1G peptide used as a positive control (Fig 4B). […] Compound 24 contains a promiscuous maleimide, which is well known to react indiscriminately with proteins.
GST-, VF-tagged human SYK and FCER1G plasmids for mammalian expression were generated using Gateway cloning technology (Invitrogen) as described previously. The DNA was purified using ZymoPURE Plasmid Maxiprep Kit (D4203, Zymo Research).
WB secondary antibodies: peroxidase-conjugated AffiniPure Goat Anti-Mouse IgG (H+L) (115-035-003, Jackson Immuno Research) 1:5000 dilution in TBST. GST pulldown was performed as described with minor changes. HEK293T (CRL-3216, ATCC) were cultured in Dulbecco’s modified Eagle’s medium with 4.5 g/L glucose, L-glutamine, and sodium pyruvate (10–013-CV, Corning) supplemented with 10% fetal bovine serum and 1% penicillin/streptomycin solution (30–002-CI, CellGro). Cells were incubated at 37°C in humidified conditions with 5% CO2. The HEK293T cells were transfected using 1 mg/mL Polyethylenimine (PEI; 23966, Polysciences) in a ratio of 3 μL to 1 μg DNA. The proteins were expressed for 48 h at 37°C. Cell pellets were re-suspended in the SYK lysis buffer (25 mM HEPES, pH 7.5, 200 mM NaCl, 0.5% Triton X100 (T9284-1L, Sigma-Aldrich), followed by sonication for 10 s (5 s on, 5 s off) at 4°C. Cells were pelleted by 10 min centrifugation at 13,000 rpm at 4°C. The cleared lysates were first pre-incubated with compounds for 30 min and then incubated with glutathione sepharose 4B beads (17075605, Cytiva Sweden AB) at 4°C for 2 h with rotation. After the incubation, beads were washed three times with the SYK lysis buffer, eluted by boiling in sodium dodecyl sulfate-polyacrylamide gel electrophoresis (SDS–PAGE) loading buffer (1610737, Bio-Rad), and analyzed by western blotting.

[4] = Compound solubility with nephelometer; type: physicochemical; conditions: aqueous buffer, kinetic from dmso stock, PBS, 90 min at room temperature
Method: Stock compound (10 mM in DMSO) was serial diluted in PBS (21-040-CV, Corning) in 96-well Costar Assay plate (3904, Corning). After incubating compound in PBS for 90 min at room temperature, the Nephelometric turbidity units (NTUs) were measured with NEPHELOstar (BMG LABTECH, Cary, North Carolina). 0.2 s was used for a measure time and PBS only as the background. Each sample was tested in triplicate. Dose-response data was analyzed by GraphPad Prism and the solubility concentration is defined at the concentration that increases the NTUs at the turning point of the curve.

[5] = target: MSN (Homo sapiens, UniProt P26038); assay: Covalent labelling and intact mass spectrometry (selectivity); conditions: 100 μM, 1 h, room temperature; four available cysteines
Sequence of MSN (P26038 whole entry, species assumed, the tested form may be a part): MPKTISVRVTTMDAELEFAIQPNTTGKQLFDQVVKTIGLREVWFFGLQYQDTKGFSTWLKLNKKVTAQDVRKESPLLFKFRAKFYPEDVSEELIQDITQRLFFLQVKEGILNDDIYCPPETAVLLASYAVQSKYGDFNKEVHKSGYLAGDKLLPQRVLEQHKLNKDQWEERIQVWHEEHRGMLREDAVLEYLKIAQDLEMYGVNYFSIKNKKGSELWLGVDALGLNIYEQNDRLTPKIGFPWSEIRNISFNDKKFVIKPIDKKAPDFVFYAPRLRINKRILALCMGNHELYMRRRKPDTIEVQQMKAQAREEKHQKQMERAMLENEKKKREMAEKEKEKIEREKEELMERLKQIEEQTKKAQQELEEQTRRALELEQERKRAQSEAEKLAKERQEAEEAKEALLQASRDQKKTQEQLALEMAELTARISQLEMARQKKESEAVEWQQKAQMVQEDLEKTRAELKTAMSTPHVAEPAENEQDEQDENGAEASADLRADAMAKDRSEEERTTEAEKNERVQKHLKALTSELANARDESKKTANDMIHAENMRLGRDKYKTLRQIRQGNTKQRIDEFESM

[6] = target: T3, SYK-tSH2 (Homo sapiens, UniProt P43405); assay: Covalent labelling and intact mass spectrometry; type: binding; design: tandem SH2 domains of human SYK (residues M6-N269); 6xHis (N, cleaved yes); made in house; host or cells: E. coli BL21(DE3)-R3-pRARE; conditions: 100 μM, 1 h; for Number of mass adducts on SYK-tSH2: room temperature
From the text: The HTS hits 13 and 37 contain a kojic acid moiety, which is proposed to react covalently with proteins in the literature. As a result, we thought that it was likely these compounds are also reacting covalently with SYK-tSH2. […] When bound to the protein, these kojic acid-derived compounds have a 94 Da decrease in mass due to the loss of the pyridin-2-amine leaving group to reveal a Michael acceptor that can react covalently with cysteine residues (Fig 5B).
To expand on the initial 40 putative hits that were identified via uHTS (Fig 3D), additional commercially available structural analogues were ordered and screened via TR-FRET and differential scanning fluorimetry (DSF) (S1 Table). […] The observation of a substantial reduction in protein melting temperature motivated us to determine if the compounds interacted covalently with the SYK-tSH2 domains. Additionally, since the thiourea in these small molecules is reported to react via oxidation, the compounds could be capable of forming a covalent disulfide bond with cysteine residues on SYK [39]. We used compound 1, which is a known covalent modifier of SYK-tSH2, as a positive control in the mass spectrometry analysis. […] Literature reports support that this type of chemical reaction can occur in DMSO, forming a disulfide bond. […] Like we had originally observed for the older DMSO stock solution of 42 (Fig 6C), 44 forms two to four mass adducts (422 Da and 844 Da) more than the protein mass when incubated SYK-tSH2 for 1 h (Fig 6D). […] Due to the mass adducts of two to four (422 Da and 844 Da), we propose that 44 is forming a disulfide bond with between two or four cysteines on SYK-tSH2 (Fig 6G).

[7] = system: SH-SY5Y cells; design: method as in PMID 31324720; conditions: 5 μM, cited from earlier work
[8] = system: Tg Tau P301S mice; conditions: cited from earlier work
[9] = system: primary neuron-glia cultures; design: method as in PMID 37009452; conditions: cited from earlier work
[10] = LCMS characterization of fresh versus older DMSO stocks; type: physicochemical; conditions: older DMSO stocks versus freshly prepared solutions
From the text: To expand on the initial 40 putative hits that were identified via uHTS (Fig 3D), additional commercially available structural analogues were ordered and screened via TR-FRET and differential scanning fluorimetry (DSF) (S1 Table). […] The observation of a substantial reduction in protein melting temperature motivated us to determine if the compounds interacted covalently with the SYK-tSH2 domains. Additionally, since the thiourea in these small molecules is reported to react via oxidation, the compounds could be capable of forming a covalent disulfide bond with cysteine residues on SYK [39]. We used compound 1, which is a known covalent modifier of SYK-tSH2, as a positive control in the mass spectrometry analysis. […] Literature reports support that this type of chemical reaction can occur in DMSO, forming a disulfide bond. […]
Supplementary file pone.0293548.s005.tiff: S4 Fig Identification of active disulfide compounds which form in DMSO solutions of compounds 42 and 43. […] LCMS Calculated for [M+H]^+ C7H9N4O2S: 213.04; observed: 213.1 [M+H]^+. […] LCMS Calculated for [M+H]^+ C14H15N8O4S2: 423.06; observed: 423.0 [M+H]^+. […] LCMS Calculated for [M+H]^+ C10H15N4O2S: 255.08; observed: 255.1 [M+H]^+. […] LCMS Calculated for [M+H]^+ C20H27N8O4S2: 507.15; observed: 507.1 [M+H]^+. […]

[11] = target: T3, SYK-tSH2; assay: Bio-layer interferometry (BLI) direct binding; conditions: biotinylated SYK-tSH2
[12] = competition of FITC-labeled FCER1G p-ITAM peptide by unlabeled peptide

FCER1G-phospho-ITAM[62–81] (peptide) gave an IC50 [1] of 0.012 µM.

CC(C)C[C@H](NC(=O)CNC(=O)[C@@H](NC(=O)[C@H](Cc1ccc(OP(=O)(O)O)cc1)NC(=O)[C@@H](NC(=O)CNC(=O)[C@@H](N)CC(=O)O)C(C)C)[C@@H](C)O)C(=O)N[C@@H](CO)C(=O)N[C@H](C(=O)N[C@@H](CCCNC(=N)N)C(=O)N[C@@H](CC(N)=O)C(=O)N[C@@H](CCC(N)=O)C(=O)N[C@@H](CCC(=O)O)C(=O)N[C@H](C(=O)N[C@@H](Cc1ccc(OP(=O)(O)O)cc1)C(=O)N[C@@H](CCC(=O)O)C(=O)N[C@H](C(=O)N[C@@H](CC(C)C)C(=O)N[C@@H](CCCCN)C(=O)N[C@@H](Cc1c[nH]cn1)C(=O)O)[C@@H](C)O)[C@@H](C)O)[C@@H](C)O [FCER1G p-ITAM peptide] (H-DGV[pY]TGLSTRNQET[pY]ETLKH-OH) gave an IC50 [2, 12] of 0.012 µM.

With O=c1cc(CO)oc(C(Nc2ccccn2)c2ccc3c(c2)OCO3)c1O (stereo not drawn) [compound 37] the “PPI disruption in GST-PD” value [3] was “confirmed to disrupt the PPI”, the “Inhibition of SYK-GST / FCER1G-Flag interaction in pulldown” value [3] was “able to inhibit the interaction” and the solubility at 90 min [4] was 100 µM (≈ 36.8 µg/mL). The “Number of mass adducts on MSN” value [5] was “one weak mass adduct” and the “Number of mass adducts on SYK-tSH2” value [6] was “between two and seven”.

With O=C1C=CC(=O)N1c1ccc(Sc2ccc(N3C(=O)C=CC3=O)cc2)cc1 [compound 24] the “PPI disruption in GST-PD” value [3] was “confirmed to disrupt the PPI” and the “Inhibition of SYK-GST / FCER1G-Flag interaction in pulldown” value [3] was “able to inhibit the interaction”.

For O=c1cc(CO)oc(C(Nc2ccccn2)c2ccc(F)cc2)c1O (stereo not drawn) [compound 13], the “PPI disruption in GST-PD” value [3] was “confirmed to disrupt the PPI”, the “Inhibition of SYK-GST / FCER1G-Flag interaction in pulldown” value [3] was “able to inhibit the interaction” and the solubility at 90 min [4] was 100 µM (≈ 34.2 µg/mL). The “Number of mass adducts on MSN” value [5] was “one weak mass adduct” and the “Number of mass adducts on SYK-tSH2” value [6] was “between one and five”.

In the case of “FCER1G-nonphospho-ITAM[62–81]-FITC (peptide)”, the IC50 [1] is reported as greater than 1 µM.

In the case of COc1ccc(-c2cc3nccn3c(Nc3ncccc3C(N)=O)n2)cc1OC.Cl.Cl [BAY61-3606, 2-[7-(3,4-Dimethoxyphenyl)-imidazo[1,2-c]pyrimidin-5-ylamino]nicotinamide Dihydrochloride], the “p-AKT, p-mTOR and p-p70 S6K levels” value [7] is listed as “reduces p-AKT, p-mTOR, and p-p70 S6K levels”, the “Phosphorylated and total tau levels” value ([7]; in vitro) is listed as “reduces phosphorylated and total tau levels” and the “Levels of phospho-tau and total tau” value ([8]; Tg Tau P301S mice, 20 mg/kg, 12 weeks) is listed as “reduced levels of phospho-tau (p-tau) and total tau (t-tau)”. For the same compound, the “Effect in mouse tauopathy models” value ([8]; mouse tauopathy models) was “decreased tau accumulation, neuronal and synaptic loss, neuroinflammation, and reversed defective autophagy”, the “Microglial-mediated phagocytosis of synapses and neurons” value [9] was “reduced microglial-mediated phagocytosis of synapses and neurons” and the LPS-induced neuronal loss ([9]; primary neuron-glia cultures) was “prevented lipopolysaccharide (LPS)-induced neuronal loss”.

With CC(C)n1c(S)nc2c1c(=O)n(C)c(=O)n2C [compound 43] the IC50 [2] was 3 ± 1.7 µM, the “Stability in DMSO stock solution” value [10] was “had formed corresponding disulfide dimers in DMSO over time” and the “BLI KD” value [11] was “did not bind”. The Kd ([11]; read-out: BLI KD) was greater than 100 µM and the “Covalent modification of SYK-tSH2” value ([6]; older DMSO stock solutions) was “did not demonstrate covalent attachment”.

Work on “non-phosphorylated FCER1G ITAM peptide: non-phosphorylated FCER1G ITAM peptide used as control (DGVYTGLSTRNQETYETLKH-{FITC′})” yielded an IC50 [2, 12] greater than 1 µM.
